The values that follow come from paper PMC6892925, “Development of Novel Silyl Cyanocinnamic Acid Derivatives as Metabolic Plasticity Inhibitors for Cancer Treatment” (Scientific Reports, 2019).

In assay [1] the test system is MDA-MB-231 cells. Put plainly: Western blot analysis of cell damage and death markers. It counts as cell-based, human. The procedure: (§1) Owing to the enhanced antiproliferative effects induced by test compound 2a when compared to CHC, western blot analysis of cell damage and death markers was performed. The master transcription factor p53 regulates the expression of numerous genes involved in cancer progression and is responsible for balancing proliferation and apoptosis. In this regard, we evaluated the effects of compound treatment on p53 expression. Literature reports indicate that MDA-MB-231 and WiDr cells express distinct homozygous mutant forms of p53 that promote an aggressive malignant phenotype with resistance to apoptosis[36],[37]. […] Further, PARP1 is involved in the DNA repair pathway through sensing DNA-strand breaks and recruiting repair enzymes. Importantly, PARP1 is a target of caspase cleavage under apoptotic conditions, and the appearance of the PARP1 cleavage product is a widely used indicator of cellular apoptosis. […] Additionally, DNA damage may be a downstream effect of apoptotic nuclease activity or an increase in reactive oxygen species (ROS) from damaged mitochondria; as illustrated in microscopy and seahorse experiments. Histone 2AX phosphorylation (γH2AX) resulting from DNA single- and double-strand breaks is a widely employed marker for DNA damage. In this regard, we investigated the effect of 2a on DNA damage marker γH2AX (phosphorylated Ser139, histone H2AX) with a phospho-specific antibody. […] Due to the potential of ROS leading to DNA damage and H2AX phosphorylation, we investigated the ability of antioxidant N-acetyl cysteine (NAC) to inhibit DNA damage of compound 2a as evidenced by H2AX phosphorylation in the highly oxidative cell line WiDr (Fig. 4A).
(§2) 50,000 WiDr or MDA-MB-231 cells were seeded in 100 mm dishes and were incubated for 48 hours. Cells were then treated with test compounds for 24 hours, washed twice with 1X PBS, solubilized in 200 μL SDS boiling buffer (5% w/v SDS, 10% v/v glycerol, and 60 mM Tris pH 6.8), and sonicated. The resulting cell lysate was then assayed for protein using the Pierce BCA protocol. A volume of test sample containing 10 μg protein was loaded on SDS PAGE gel for electrophoresis according to manufacturer’s instructions. Proteins were transferred from the gel to nitrocellulose membrane according to the manufacturer’s instructions. Membranes were blocked for 1 hr at 35 °C using 10% (w/v) non-fat milk in PBST and were exposed to primary antibody. PARP1 (rabbit polyclonal IgG, Origene, TA321555), p53 (rabbit polyclonal IgG, Santa Cruz, sc50329), and γ-H2AX (Upstate 05-636, 1:2500) were detected and visualized using HRP chemiluminescence. For relative quantitation, β-actin (mouse monoclonal IgG C4, Millipore, MAB1501, 1:10,000) and GAPDH (mouse monoclonal IgG, Santa Cruz, sc47724, 1:100) were detected and measured as a control protein.
(In general: Immunoblotting shows a protein as a band on a membrane.)

The test system of assay [2] is WiDr cells. The assay is described as above. It is filed as cell-based, human. The following applies: WiDr. The procedure:
as §1, §2

With `CC(C)(C)[Si](Oc1ccc(/C=C(\C#N)C(=O)O)cc1)(c1ccccc1)c1ccccc1` [2a], the PARP1 cleavage entry is “induced PARP1 cleavage” in assay [1] (100 μM, 24 hours) and “induced PARP1 cleavage” in assay [2] (100 μM, 24 hours). The “expression of γH2AX (DNA damage marker)” value in assay [1] (100 μM, 24 hours) was “substantial increases”; in assay [2] (100 μM, 24 hours), “substantial increases”. Also, the p53 expression entry is recorded as “increase in p53 expression” in assay [1] (24 hours treatment) and “not in WiDr” in assay [2] (24 hours treatment).
